From ChEMBL document CHEMBL1155340, “Discovery of a novel azepine series of potent and selective 5-HT2C agonists as potential treatments for urinary incontinence” (Bioorg Med Chem Lett, 2009)

Key:
[1] = in vitro; details: human, liver microsomes
Description: (§1) Metabolic stability in human liver microsomes assessed per mg of protein

[2] = molecular target: T1, 5-hydroxytryptamine receptor 2C (Homo sapiens, UniProt P28335)
T1 sequence (P28335 whole entry): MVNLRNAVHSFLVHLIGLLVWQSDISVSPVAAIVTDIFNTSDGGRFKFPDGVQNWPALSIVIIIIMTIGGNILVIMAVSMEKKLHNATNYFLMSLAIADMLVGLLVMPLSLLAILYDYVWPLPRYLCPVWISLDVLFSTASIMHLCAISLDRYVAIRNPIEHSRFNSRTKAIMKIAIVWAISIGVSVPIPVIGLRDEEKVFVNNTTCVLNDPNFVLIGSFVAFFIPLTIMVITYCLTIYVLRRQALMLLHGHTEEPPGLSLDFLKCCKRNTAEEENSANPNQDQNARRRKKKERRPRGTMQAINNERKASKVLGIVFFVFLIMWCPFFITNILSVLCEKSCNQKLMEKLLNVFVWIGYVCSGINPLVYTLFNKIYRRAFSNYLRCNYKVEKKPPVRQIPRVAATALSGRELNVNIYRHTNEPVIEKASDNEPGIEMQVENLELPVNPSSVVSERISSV

[3] = molecular target: T2, 5-hydroxytryptamine receptor 2B (Homo sapiens, UniProt P41595); experiment: Agonist activity at human recombinant 5HT2B receptor assessed as induction of calcium mobilization by FLIPR assay relative to 5-HT; assay type: functional
T2 sequence (P41595 whole entry): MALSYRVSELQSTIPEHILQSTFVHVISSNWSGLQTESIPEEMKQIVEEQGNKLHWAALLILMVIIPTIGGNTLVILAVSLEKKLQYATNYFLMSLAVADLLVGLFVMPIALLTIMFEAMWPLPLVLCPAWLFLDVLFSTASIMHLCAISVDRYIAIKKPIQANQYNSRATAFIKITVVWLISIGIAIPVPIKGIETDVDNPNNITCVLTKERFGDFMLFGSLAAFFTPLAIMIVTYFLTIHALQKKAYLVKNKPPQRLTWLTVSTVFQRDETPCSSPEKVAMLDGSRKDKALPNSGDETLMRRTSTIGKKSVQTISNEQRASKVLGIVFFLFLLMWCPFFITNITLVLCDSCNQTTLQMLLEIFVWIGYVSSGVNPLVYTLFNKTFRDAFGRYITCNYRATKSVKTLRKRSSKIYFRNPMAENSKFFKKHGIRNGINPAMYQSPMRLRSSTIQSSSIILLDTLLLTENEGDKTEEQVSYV

[4] = physchem; details: buffer, pH 7.4
Description: Lipophilicity, log D at pH 7.4

[5] = molecular target: T2, 5-hydroxytryptamine receptor 2B
[6] = molecular target: T3, 5-hydroxytryptamine receptor 2C (Homo sapiens) (UniProt P28335); experiment: Agonist activity at human recombinant 5HT2C receptor expressed in CHO K1 cells assessed as induction of calcium mobilization by FLIPR assay relative to 5-HT; assay type: functional, cell-based
T3 sequence (whole entry): T1 sequence (P28335 whole entry)

[7] = species: Homo sapiens; experiment: Selectivity ratio of EC50 for human recombinant 5HT2B receptor to EC50 for human recombinant 5HT2A receptor
[8] = tested on: MDR1; experiment: in vitro; details: dog, MDCK-MDR1
Description: Apparent membrane permeability across apical to basolateral side of MDR1 expressing MDCK cells

[9] = molecular target: T2, 5-hydroxytryptamine receptor 2B; experiment: Agonist activity at human recombinant 5HT2B receptor assessed as induction of calcium mobilization at 10 uM by FLIPR assay relative to 5-HT; assay type: functional
[10] = molecular target: 5-hydroxytryptamine receptor 2A (Canis lupus familiaris) (UniProt O46635); experiment: Agonist activity at 5-HT2A receptor in dog bladder strip relative to 5-HT; assay type: functional
Sequence of 5-hydroxytryptamine receptor 2A (Canis lupus familiaris) (O46635 whole entry): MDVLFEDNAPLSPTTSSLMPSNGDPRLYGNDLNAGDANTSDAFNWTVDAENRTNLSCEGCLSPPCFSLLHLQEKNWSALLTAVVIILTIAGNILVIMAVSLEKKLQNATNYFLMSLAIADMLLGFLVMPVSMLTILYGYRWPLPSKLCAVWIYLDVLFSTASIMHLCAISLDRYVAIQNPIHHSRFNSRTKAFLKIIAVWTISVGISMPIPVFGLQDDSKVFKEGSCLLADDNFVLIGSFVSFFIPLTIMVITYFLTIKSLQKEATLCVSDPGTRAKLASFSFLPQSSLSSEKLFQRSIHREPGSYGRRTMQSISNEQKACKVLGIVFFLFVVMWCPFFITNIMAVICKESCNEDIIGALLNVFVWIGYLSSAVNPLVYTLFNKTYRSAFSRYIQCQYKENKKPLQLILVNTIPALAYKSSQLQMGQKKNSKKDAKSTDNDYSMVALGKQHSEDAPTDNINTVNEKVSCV

[11] = molecular target: 5-hydroxytryptamine receptor 2A (Canis lupus familiaris, UniProt O46635); experiment: Agonist activity at 5-HT2A receptor in dog bladder strip; assay type: functional
Sequence of 5-hydroxytryptamine receptor 2A (O46635 whole entry): as above

[12] = tested on: Liver microsomes; details: human
Description: as §1

[13] = molecular target: Cytochrome P450 2D6 (Homo sapiens, UniProt P10635); experiment: Inhibition of CYP2D6; assay type: ADME
Sequence of Cytochrome P450 2D6 (P10635 whole entry): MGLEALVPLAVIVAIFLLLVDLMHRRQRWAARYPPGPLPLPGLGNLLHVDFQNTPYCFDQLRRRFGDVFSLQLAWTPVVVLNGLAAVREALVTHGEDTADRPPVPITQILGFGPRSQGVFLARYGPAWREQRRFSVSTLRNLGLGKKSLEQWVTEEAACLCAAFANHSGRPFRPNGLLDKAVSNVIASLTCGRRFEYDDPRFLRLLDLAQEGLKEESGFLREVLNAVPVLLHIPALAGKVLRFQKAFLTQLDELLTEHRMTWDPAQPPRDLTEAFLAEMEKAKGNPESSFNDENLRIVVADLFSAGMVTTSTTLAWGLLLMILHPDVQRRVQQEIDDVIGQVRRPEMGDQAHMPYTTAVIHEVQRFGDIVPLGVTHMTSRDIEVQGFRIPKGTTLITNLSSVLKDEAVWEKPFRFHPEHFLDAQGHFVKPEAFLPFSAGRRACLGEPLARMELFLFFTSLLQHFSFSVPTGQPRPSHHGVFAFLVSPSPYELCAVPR

[14] = molecular target: T4, Cytochrome P450 1A2 (Homo sapiens, UniProt P05177); experiment: Inhibition of CYP1A2; assay type: ADME
T4 sequence (P05177 whole entry): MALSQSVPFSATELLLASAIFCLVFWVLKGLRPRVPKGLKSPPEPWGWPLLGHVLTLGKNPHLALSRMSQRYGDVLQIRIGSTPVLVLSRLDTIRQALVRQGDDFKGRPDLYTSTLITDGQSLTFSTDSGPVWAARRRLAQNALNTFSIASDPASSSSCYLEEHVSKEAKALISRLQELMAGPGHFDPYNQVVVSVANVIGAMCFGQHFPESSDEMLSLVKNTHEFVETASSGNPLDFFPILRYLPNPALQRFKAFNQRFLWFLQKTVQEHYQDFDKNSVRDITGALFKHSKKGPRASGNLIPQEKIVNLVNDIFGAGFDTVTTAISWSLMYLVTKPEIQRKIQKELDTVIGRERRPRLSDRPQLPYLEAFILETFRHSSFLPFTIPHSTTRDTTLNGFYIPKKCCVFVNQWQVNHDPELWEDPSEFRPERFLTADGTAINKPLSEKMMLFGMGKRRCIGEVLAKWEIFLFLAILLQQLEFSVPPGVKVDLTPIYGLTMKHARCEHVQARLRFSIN

[15] = molecular target: Cytochrome P450 2C9 (Homo sapiens, UniProt P11712); experiment: Inhibition of CYP2C9; assay type: ADME
Sequence of Cytochrome P450 2C9 (P11712 whole entry): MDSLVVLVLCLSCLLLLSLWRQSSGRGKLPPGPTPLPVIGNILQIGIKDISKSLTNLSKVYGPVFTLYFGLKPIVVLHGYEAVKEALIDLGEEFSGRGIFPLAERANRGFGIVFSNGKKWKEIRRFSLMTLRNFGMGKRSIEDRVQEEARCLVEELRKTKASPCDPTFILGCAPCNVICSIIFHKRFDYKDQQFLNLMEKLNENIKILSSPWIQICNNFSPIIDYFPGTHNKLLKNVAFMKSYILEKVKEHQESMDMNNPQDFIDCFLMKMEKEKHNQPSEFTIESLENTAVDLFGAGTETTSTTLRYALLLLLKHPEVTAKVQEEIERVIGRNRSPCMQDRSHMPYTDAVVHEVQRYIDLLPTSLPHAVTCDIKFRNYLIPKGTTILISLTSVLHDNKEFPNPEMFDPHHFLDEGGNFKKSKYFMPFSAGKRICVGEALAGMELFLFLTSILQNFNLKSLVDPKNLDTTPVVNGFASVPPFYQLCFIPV

[16] = molecular target: Muscarinic acetylcholine receptor M3 (Homo sapiens, UniProt P20309); experiment: Inhibition of muscarinic receptor 3
Sequence of Muscarinic acetylcholine receptor M3 (P20309 whole entry): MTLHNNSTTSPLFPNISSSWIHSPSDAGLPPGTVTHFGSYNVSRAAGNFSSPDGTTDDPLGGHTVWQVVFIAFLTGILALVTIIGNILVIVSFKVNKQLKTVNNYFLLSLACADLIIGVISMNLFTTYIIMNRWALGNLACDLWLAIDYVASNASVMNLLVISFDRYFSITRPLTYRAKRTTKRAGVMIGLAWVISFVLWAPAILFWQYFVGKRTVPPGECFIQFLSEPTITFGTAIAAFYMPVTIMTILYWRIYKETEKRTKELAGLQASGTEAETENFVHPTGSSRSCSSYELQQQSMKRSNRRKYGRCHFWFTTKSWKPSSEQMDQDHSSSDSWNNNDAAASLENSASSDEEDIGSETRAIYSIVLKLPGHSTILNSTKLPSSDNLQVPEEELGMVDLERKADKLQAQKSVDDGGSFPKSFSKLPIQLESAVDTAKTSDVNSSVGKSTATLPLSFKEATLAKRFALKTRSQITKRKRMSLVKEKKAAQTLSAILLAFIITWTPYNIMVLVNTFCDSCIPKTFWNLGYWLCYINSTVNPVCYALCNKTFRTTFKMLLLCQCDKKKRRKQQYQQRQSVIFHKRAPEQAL

[17] = molecular target: Voltage-gated inwardly rectifying potassium channel KCNH2 (Homo sapiens, UniProt Q12809); experiment: Displacement of dofrtilide from human ERG channel
Sequence of Voltage-gated inwardly rectifying potassium channel KCNH2 (Q12809 whole entry): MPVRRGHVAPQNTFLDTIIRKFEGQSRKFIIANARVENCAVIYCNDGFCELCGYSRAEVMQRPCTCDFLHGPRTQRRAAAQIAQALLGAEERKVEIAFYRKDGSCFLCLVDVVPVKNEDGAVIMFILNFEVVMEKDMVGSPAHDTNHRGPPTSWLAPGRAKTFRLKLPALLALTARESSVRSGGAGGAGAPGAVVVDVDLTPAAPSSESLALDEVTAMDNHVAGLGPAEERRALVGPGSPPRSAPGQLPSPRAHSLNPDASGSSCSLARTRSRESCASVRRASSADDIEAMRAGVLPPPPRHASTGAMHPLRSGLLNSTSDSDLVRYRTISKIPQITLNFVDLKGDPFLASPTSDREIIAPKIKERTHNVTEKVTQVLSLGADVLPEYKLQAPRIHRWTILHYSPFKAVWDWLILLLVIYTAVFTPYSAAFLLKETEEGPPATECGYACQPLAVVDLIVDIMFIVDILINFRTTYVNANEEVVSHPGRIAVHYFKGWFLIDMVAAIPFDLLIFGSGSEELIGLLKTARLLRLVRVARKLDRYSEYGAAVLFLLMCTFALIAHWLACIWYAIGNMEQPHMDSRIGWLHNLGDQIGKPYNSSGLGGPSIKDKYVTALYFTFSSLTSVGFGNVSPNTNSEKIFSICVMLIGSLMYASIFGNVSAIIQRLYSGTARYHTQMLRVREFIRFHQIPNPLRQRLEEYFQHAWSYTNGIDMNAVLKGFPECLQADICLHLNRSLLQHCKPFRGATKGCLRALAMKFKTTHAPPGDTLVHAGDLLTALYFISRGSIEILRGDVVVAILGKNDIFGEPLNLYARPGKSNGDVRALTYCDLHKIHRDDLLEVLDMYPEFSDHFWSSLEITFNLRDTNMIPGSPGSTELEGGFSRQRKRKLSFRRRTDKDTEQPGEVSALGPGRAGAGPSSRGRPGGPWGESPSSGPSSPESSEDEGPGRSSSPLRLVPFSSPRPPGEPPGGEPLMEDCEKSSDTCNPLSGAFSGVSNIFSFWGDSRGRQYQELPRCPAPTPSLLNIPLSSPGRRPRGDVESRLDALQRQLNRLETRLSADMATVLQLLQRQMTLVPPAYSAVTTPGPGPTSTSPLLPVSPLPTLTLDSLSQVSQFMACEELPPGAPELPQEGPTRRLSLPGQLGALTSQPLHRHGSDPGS

[18] = molecular target: Beta-2 adrenergic receptor (Homo sapiens, UniProt P07550); experiment: Inhibition of beta2 adrenergic receptor
Sequence of Beta-2 adrenergic receptor (P07550 whole entry): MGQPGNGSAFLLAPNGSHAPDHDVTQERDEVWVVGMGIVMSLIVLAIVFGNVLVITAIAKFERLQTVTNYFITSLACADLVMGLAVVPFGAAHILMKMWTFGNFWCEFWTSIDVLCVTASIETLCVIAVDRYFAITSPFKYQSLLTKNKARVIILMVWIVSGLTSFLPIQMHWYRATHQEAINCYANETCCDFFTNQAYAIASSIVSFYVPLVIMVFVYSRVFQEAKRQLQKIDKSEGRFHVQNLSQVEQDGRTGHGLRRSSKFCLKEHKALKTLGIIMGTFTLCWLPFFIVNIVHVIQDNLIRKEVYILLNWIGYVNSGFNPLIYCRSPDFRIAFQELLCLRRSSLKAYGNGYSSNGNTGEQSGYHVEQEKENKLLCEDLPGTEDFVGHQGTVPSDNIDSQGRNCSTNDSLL

[19] = Plasma concentration in dog model of stress incontinence at 150 ug/kg, iv after 60 mins; assay type: ADME, organism-based, Canis lupus familiaris; details: 0.15 mg/kg
[20] = molecular target: T5, 5-hydroxytryptamine receptor 3A (Homo sapiens, UniProt P46098); experiment: Inhibition of 5HT3 receptor
T5 sequence (P46098 whole entry): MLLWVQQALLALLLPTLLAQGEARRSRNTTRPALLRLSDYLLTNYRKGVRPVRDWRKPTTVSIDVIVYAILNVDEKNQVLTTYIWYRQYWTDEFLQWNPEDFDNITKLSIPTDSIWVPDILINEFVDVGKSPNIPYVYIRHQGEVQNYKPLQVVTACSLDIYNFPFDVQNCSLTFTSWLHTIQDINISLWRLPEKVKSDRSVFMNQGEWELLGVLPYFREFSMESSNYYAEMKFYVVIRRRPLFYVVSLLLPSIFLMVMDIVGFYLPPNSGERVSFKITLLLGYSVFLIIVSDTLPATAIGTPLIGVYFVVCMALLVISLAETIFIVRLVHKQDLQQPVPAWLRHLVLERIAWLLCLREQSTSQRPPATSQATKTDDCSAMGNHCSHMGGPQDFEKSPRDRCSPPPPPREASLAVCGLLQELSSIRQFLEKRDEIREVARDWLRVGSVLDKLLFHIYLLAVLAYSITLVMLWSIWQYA

[21] = tested on: Canis familiaris; experiment: Increase of peak urethral pressure in dog model of stress incontinence at 150 ug/kg, iv after 60 mins; assay type: functional, Canis lupus familiaris, Urethra
[22] = molecular target: Cytochrome P450 3A4 (Homo sapiens, UniProt P08684); experiment: Inhibition of CYP3A4; assay type: ADME
Sequence of Cytochrome P450 3A4 (P08684 whole entry): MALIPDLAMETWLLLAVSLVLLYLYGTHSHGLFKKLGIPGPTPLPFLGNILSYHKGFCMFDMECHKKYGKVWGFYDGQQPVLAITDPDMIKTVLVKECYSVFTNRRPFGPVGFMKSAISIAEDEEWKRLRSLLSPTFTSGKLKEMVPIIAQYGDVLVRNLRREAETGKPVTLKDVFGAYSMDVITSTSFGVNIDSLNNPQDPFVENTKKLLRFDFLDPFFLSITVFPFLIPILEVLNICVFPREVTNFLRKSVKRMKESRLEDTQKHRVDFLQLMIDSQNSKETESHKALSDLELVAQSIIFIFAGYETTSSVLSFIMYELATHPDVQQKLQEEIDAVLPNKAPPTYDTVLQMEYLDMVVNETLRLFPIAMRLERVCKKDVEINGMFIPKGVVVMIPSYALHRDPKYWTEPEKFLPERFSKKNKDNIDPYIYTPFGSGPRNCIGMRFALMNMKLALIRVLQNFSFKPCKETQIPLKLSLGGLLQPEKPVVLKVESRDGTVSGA

SMILES: O=c1cc2c(nn1Cc1ccc(C(F)(F)F)cc1)CCNCC2
- microsomal CLint [1]: 10 µL/min/mg
- EC50 [2]: 0.125 µM
- Emax [3]: 59%
- logD [4]: 1.1
- EC50 [5]: 0.473 µM
- Emax [6]: 47%

SMILES: O=c1cc2c(nn1Cc1ccccc1)CCNCC2
- Ratio EC50 [7]: 10
- microsomal CLint [1]: < 7 µL/min/mg
- EC50 [2]: 0.031 µM
- Emax [3]: 48%
- logD [4]: 0.3
- EC50 [5]: 0.358 µM
- Papp A→B [8]: 25 ×10⁻⁶ cm/s
- Emax [6]: 79%

SMILES: Cn1nc2c(cc1=O)CCNCC2
- Emax [9]: 32%
- EC50 [2]: 0.338 µM
- Emax [6]: 52%

SMILES: N#Cc1ccc(Cn2nc3c(cc2=O)CCNCC3)cc1
- Emax [9]: 42%
- microsomal CLint [1]: < 7 µL/min/mg
- EC50 [2]: 6.63 µM
- logD [4]: -0.1
- Papp A→B [8]: 11 ×10⁻⁶ cm/s
- Emax [6]: 51%

SMILES: Cn1c2c(c(=O)n1Cc1ccccc1)CCNCC2
- microsomal CLint [1]: < 7 µL/min/mg
- EC50 [2]: 2.93 µM
- logD [4]: 0
- EC50 [5]: > 10 µM
- Papp A→B [8]: 13 ×10⁻⁶ cm/s

SMILES: O=c1cc2c(nn1Cc1cccc(Cl)c1)CCNCC2
- microsomal CLint [1]: < 7 µL/min/mg
- EC50 [2]: 0.03 µM
- Emax [3]: 73%
- logD [4]: 1.1
- EC50 [5]: 0.081 µM
- Papp A→B [8]: 32 ×10⁻⁶ cm/s
- Emax [6]: 70%

SMILES: O=c1cc2c(nn1Cc1ccc(Cl)cc1)CCNCC2
- microsomal CLint [1]: < 7 µL/min/mg
- EC50 [2]: 0.031 µM
- Emax [3]: 73%
- logD [4]: 1.1
- EC50 [5]: 0.267 µM
- Emax [6]: 40%

SMILES: O=c1cc2c(nn1CCOc1ccccc1)CCNCC2
- microsomal CLint [1]: < 7 µL/min/mg
- EC50 [2]: > 10 µM
- logD [4]: 0.4
- EC50 [5]: > 10 µM

SMILES: O=c1cc2c(nn1Cc1ccc(C3CC3)cc1)CCNCC2
- microsomal CLint [1]: < 7 µL/min/mg
- EC50 [2]: 0.026 µM
- Emax [3]: 34%
- logD [4]: 1.4
- EC50 [5]: 0.084 µM
- Emax [6]: 51%

SMILES: Cc1nnc2c3c(nc(Cc4ccccc4)n12)CCNCC3
- Emax [10]: 36%
- EC50 [11]: 1.6 µM

SMILES: O=c1c2c([nH]n1Cc1ccccc1)CCNCC2
- EC50 [2]: > 10 µM
- logD [4]: -0.5
- EC50 [5]: > 10 µM
- Papp A→B [8]: 2 ×10⁻⁶ cm/s
- Emax [6]: 57%
- CL [12]: 13 µL/min/mg

SMILES: Clc1cccc(N2CCNCC2)c1
- Emax [3]: 35%
- Emax [6]: 71%

SMILES: c1ccc(Cn2cc3c(n2)CCNCC3)cc1
- microsomal CLint [1]: < 7 µL/min/mg
- EC50 [2]: 4.98 µM
- logD [4]: 0.1
- EC50 [5]: > 10 µM
- Papp A→B [8]: 27 ×10⁻⁶ cm/s
- Emax [6]: 65%

SMILES: c1ccc(COc2n[nH]c3c2CCNCC3)cc1
- microsomal CLint [1]: < 7 µL/min/mg
- EC50 [2]: 0.176 µM
- Emax [3]: 56%
- logD [4]: 0.5
- EC50 [5]: 0.353 µM
- Papp A→B [8]: 24 ×10⁻⁶ cm/s

SMILES: O=c1cc2c(nn1Cc1ccc(OC(F)(F)F)cc1)CCNCC2
- microsomal CLint [1]: < 7 µL/min/mg
- EC50 [2]: 0.048 µM
- Emax [3]: 58%
- logD [4]: 1.5
- EC50 [5]: > 10 µM
- Emax [6]: 66%

SMILES: O=c1cc2c(nn1Cc1ccccc1OC(F)(F)F)CCNCC2
- microsomal CLint [1]: < 7 µL/min/mg
- EC50 [2]: 0.107 µM
- Emax [3]: 86%
- logD [4]: 1.2
- EC50 [5]: 0.142 µM
- Emax [6]: 57%

SMILES: O=c1cc2c(nn1-c1ccccc1)CCNCC2
- EC50 [2]: > 10 µM
- logD [4]: -0.3
- EC50 [5]: > 10 µM

SMILES: O=c1cc2c(nn1Cc1ccccc1Cl)CCNCC2
- microsomal CLint [1]: < 7 µL/min/mg
- EC50 [2]: 0.033 µM
- Emax [3]: 67%
- logD [4]: 0.9
- EC50 [5]: 0.094 µM
- Emax [6]: 56%

SMILES: O=c1[nH]n(Cc2ccccc2)c2c1CCNCC2
- microsomal CLint [1]: < 7 µL/min/mg
- EC50 [2]: > 10 µM
- logD [4]: -0.1
- EC50 [5]: > 10 µM
- Emax [6]: 68%

SMILES: CC(C)CCn1nc2c(cc1=O)CCNCC2
- Emax [9]: 65%
- microsomal CLint [1]: < 7 µL/min/mg
- EC50 [2]: 0.062 µM
- logD [4]: 0.6
- Emax [6]: 77%

SMILES: Cc1nc2c3c(nc(Cc4ccccc4)n2n1)CCNCC3
- inhibition (INH) [13]: < 10%
- inhibition (INH) [14]: < 10%
- Emax [10]: 40%
- inhibition (INH) [15]: < 10%
- EC50 [11]: 1.8 µM
- Ki [16]: 8.2 µM
- Ki [17]: > 22 µM
- Ki [18]: 7.6 µM
- concentration at 1 h [19]: 89 nM
- Ki [20]: 3.7 µM
- Efficacy [21]: 20%
- inhibition (INH) [22]: < 10%
